Consider five compounds from PMC4640066 (Nature Communications, 2015).

In test [1] the target is T1, human γ-tubulin (Homo sapiens, UniProt P23258).
T1 construct: myc (C); 6His (C); made in house; host or cells: Sf21 insect cells (baculovirus)
Kind of test: Tryptophan-based drug-binding assay, γ-tubulin. Conditions: for Ratio of Kd[α/β-tubulin]/Kd[γ-tubulin]: selectivity for γ-tubulin over α/β-tubulin; for Kd: tryptophan fluorescence decrease, 1 μM protein, mean±s.d., three independent experiments. The method, then: In brief, 0.7 × 10^6 cells ml^−1 were infected with the γ-tubulin baculovirus. After 48 h, cells were collected by centrifugation at […] for 10 min and flash-frozen in liquid nitrogen and stored at −80 °C. Purification was carried out as described with slight modifications. […] Imidazole (final 10 mM) was added and the lysate was centrifuged again at 192,800g for 30 min at 4 °C. […] Ni-NTA Agarose was then washed twice with wash buffer 1 (lysis buffer containing 25 mM imidazole) and wash buffer 2 (50 mM MES pH 6.6, 500 mM KCl, 5 mM MgCl2, 10% glycerol, 10 μM GTP and 1 mM DTT) containing 25 mM imidazole. γ-Tubulin was eluted with wash buffer 2 containing 200 mM imidazole.
Monomeric γ-tubulin was prepared using a size exclusion column HiLoad 16/60 Superdex 200 pre-equilibrated with gel filtration buffer (50 mM MES pH 6.6, 500 mM KCl, 5 mM MgCl2, 1 mM EGTA, 10 μM GTP and 1 mM DTT). The peak fractions representing monomeric γ-tubulin were identified by A280 and confirmed using SDS–PAGE. Protein was concentrated using a Vivaspin concentrator (Sartorius) and supplemented with 10% glycerol, following snap-freezing in liquid nitrogen and storage at −80 °C.
(§1) Gel filtration buffer for γ-tubulin purification (50 mM MES pH 6.6, 500 mM KCl, 5 mM MgCl2, 1 mM EGTA and 1 mM DTT) supplemented with 10% of glycerol was used as an assay buffer. γ-tubulin and α/β-tubulin were diluted in this assay buffer to reach a final protein concentration of 1 μM. A final concentration of 10 μM or 1 mM GTP was added to the samples. Proteins were incubated for 30 min with compounds (final DMSO concentration was 1%; 2% for AG1 and gatastatin). […] Dissociation constants were calculated from fitting curves of decreasing fluorescence (ΔFL) using the GraphPad Prizm software.

The target of a further test is T2, α/β-tubulin (Sus scrofa, UniProt P02550+P02554).
T2 construct: α/β-Tubulin was purified from porcine brain; from tissue; host or cells: porcine brain
T2 sequence (P02554 whole entry): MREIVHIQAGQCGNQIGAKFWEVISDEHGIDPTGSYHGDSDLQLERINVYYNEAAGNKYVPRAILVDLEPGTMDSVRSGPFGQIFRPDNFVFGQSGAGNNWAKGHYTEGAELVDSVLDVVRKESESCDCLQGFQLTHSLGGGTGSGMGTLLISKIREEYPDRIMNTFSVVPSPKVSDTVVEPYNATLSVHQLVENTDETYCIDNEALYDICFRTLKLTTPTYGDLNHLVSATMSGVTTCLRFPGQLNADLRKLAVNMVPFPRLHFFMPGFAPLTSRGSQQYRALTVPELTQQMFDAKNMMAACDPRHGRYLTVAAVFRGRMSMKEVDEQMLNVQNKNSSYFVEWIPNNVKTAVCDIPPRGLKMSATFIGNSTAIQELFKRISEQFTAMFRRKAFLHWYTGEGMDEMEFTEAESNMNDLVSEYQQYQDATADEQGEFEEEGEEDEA
T2 sequence (P02550 whole entry): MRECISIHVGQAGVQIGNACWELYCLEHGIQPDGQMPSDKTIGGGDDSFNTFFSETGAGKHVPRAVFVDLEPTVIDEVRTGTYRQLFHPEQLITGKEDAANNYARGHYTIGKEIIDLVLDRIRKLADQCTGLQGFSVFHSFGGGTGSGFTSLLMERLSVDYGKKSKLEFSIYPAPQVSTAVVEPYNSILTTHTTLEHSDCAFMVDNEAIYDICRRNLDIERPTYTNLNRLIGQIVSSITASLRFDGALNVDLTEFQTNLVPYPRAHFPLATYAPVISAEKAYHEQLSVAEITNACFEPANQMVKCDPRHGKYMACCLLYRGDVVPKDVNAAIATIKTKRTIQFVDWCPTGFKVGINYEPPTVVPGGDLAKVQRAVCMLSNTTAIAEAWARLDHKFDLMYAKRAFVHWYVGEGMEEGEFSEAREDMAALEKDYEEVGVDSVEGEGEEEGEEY
As to the kind of experiment: Tryptophan-based drug-binding assay, α/β-tubulin. More on the design: species or system porcine. The settings on record: tryptophan fluorescence decrease; 1 μM protein; mean±s.d., three independent experiments. On the procedure:
γ-TuSC was purified as described. Briefly, γ-TuSC was expressed in HighFive cells and purified by sequential steps of Ni-NTA (Macherei-Nagel) purification, MonoQ column purification (GE Healthcare) and size exclusion (Superdex 200 column, GE Healthcare)[14]. α/β-Tubulin was purified from porcine brain through four cycles of polymerization and depolymerization using 1 M PIPES buffer (1 M PIPES-KOH, 1 mM EGTA, 1 mM MgCl2, pH 6.8) for effective removal of MT-associated proteins.
as §1

The target in test [2] is T1, human γ-tubulin. As to the kind of experiment: GTP binding to recombinant γ-tubulin (UV crosslinking). Conditions: 70 nM γ-tubulin, α-[32P]-GTP. The method, then:
Supplementary Figure 2. Binding of GTP and GCP4 to recombinant human γ-tubulin
(a) GTP binding to γ-tubulin. 70 nM of γ-tubulin was mixed with indicated concentrations of α-[32P]-GTP, and cross-linked by UV irradiation. After separation of crosslinked γ-tubulin and unbound α-[32P]-GTP, radioactivity was detected with a phosphorimager. Band intensities were quantified with ImageJ. The Kd (121.1 nM) was calculated using GraphPad Prizm software. (b) Purified human γ-tubulin and GCP4 interaction was detected by gel filtration and SDS-PAGE. Equal volumes of γ-tubulin (1.5 µM) and GCP4 (4 µM), γ-tubulin (1.5 µM) and buffer, or GCP4 (4 µM) and buffer were mixed and incubated for 30 min at 20 °C. Proteins were separated by size exclusion column Superdex 200 10/300 GL pre-equilibrated with gel filtration buffer (50 mM MES pH6.6, 500 mM KCl, 5 mM MgSO4, 1 mM EGTA, 1 mM DTT, 10 µM GTP).
γ-Tubulin alone and GCP4 alone were eluted at retention times of 27 min and 24 min, respectively. The […]
GCP4 and γ-tubulin in these fractions were confirmed by SDS-PAGE and silver staining.
(1 picture or pasted object on this page, not shown here)

The test system of test [3] is γ-tubulin-dependent, RanQ69L-stimulated aster formation. As to the kind of experiment: RanQ69L-stimulated aster formation in M-phase Xenopus egg extracts. It counts as biochemical. On the procedure:
(§2) Cytostatic factor (CSF)-arrested M phase Xenopus egg extracts (CSF extracts) were prepared. Briefly, unfertilized eggs were crushed by 10,700g centrifugation for 20 min. M phase extracts were mixed with 0.5 μM Cy3-labelled α/β-tubulin and various concentrations of compounds. After incubation for 30 min on ice, 15 μM RanQ69L, 200 sperm nuclei per μl or 5% DMSO were added and incubated for 30 min on ice. After incubation for 20 min at 20 °C (for the samples with sperm nuclei, the incubation time was 30 min), 1.5 μl sample was fixed with 1.5 μl fix solution (0.3 volume of 37% formaldehyde, 0.6 volume of 80% glycerol and 0.1 vol of 10 × MMR solution (50 mM HEPES, pH 7.8, 1 M NaCl, 20 mM KCl, 10 mM MgCl2, 20 mM CaCl2 and 1 mM EDTA)), followed by the squash fix.
(§3) Images were acquired using a microscope (Axiovert 200 M; Carl Zeiss Inc.) equipped with a plan-Apochromat × 63 NA 1.3 oil objective lens (Carl Zeiss Inc.), a Cy3 emission filter and a Cascade:1 K (Photometrics Inc.) camera, and the AxioVision software (Carl Zeiss Inc.). The aster size and fluorescence intensity were quantified using a macro written in MATLAB[41].

Test [4] concerns DMSO-stimulated, γ-tubulin-independent aster formation. Kind of test: DMSO-stimulated aster formation in M-phase Xenopus egg extracts. It counts as biochemical. Conditions: M-phase-arrested Xenopus egg extracts, 5% DMSO, 20 min at 20 °C. On the procedure: as §2, §3
A further test deals with HeLa cells. Kind of test: Analysis of interphase MT network. The format is cell-based, human. The settings on record: 30 μM, 2.5 h. The method, then: HeLa cells were cultured in DMEM containing 10% FBS in a humidified atmosphere containing 5% CO2. After treatment with each compound for 2.5 h (interphase MT network) or 5 h (mitotic spindle), the cells were immediately fixed with cold MeOH (−20 °C). After blocking with PBS containing 0.5% bovine serum albumin, cells were incubated with anti-α-tubulin antibodies (1:500 dilution, Santa Cruz, Cat# sc-32293) to observe interphase cells, or with anti-BubR1 (1:250 dilution, BD Bioscience, Cat# 612502) and anti-α-tubulin (1:250 dilution, MBL, Cat# PM054) antibodies to observe mitotic spindle. After staining with Alexa^488-conjugated anti-mouse IgG (1:2,000 dilution, Invitrogen, Cat#A11001) and Alexa568-conjugated anti-rabbit IgG (1:2000 dilution, Invitrogen, Cat#A11011), cells were washed four times with PBS and mounted with PBS containing 0.1 μg ml^−1 DAPI. MTs and BubR1 signals were observed under a Leica LAS AF 6000 fluorescence microscope (Leica Microsystems) or an LSM 700 laser-scanning confocal microscope (Zeiss).

Test [5] deals with T1, human γ-tubulin. Kind of test: Inhibition of GTP binding of γ-tubulin (α-[32P]-GTP crosslinking assay). Conditions: 60 μM compound; 70 nM γ-tubulin, 100 nM α-[32P]-GTP; mean±s.d. The method, then:
For analysis of the effect of drugs on GTP binding of γ-tubulin, 70 nM of purified human γ-tubulin in GTP-binding buffer (50 mM MES, 5 mM MgCl2, 1 mM EGTA, pH 6.6) was incubated with or without compounds for 15 min at 20 °C. A final concentration of 100 nM of α-[^32P]-GTP was added and incubated at 20 °C for 30 min. After incubation, bound α-[^32P]-GTP was crosslinked to γ-tubulin for 60 s by illumination with a ultraviolet lamp using CL-1000 Ultraviolet Crosslinker. Protein with the crosslinked GTP was separated from unbound nucleotide by TCA precipitation and SDS–PAGE, and ^32P labelling was measured using a Typhoon FLA-7000 (General Electronic Company). Band intensities were quantified with the ImageJ software.

For test [6], the system named is HeLa cells expressing EB3-EGFP (interphase). As to the kind of experiment: EB3-EGFP signal tracking, interphase cells. Conditions: 15 min; for Track length / Track lifetime / Velocity: interphase HeLa EB3-EGFP, mean±s.d.; for Track numbers: interphase, from a 144-μm^2 area inside the cell. It counts as cell-based, human. On the procedure: A HeLa ‘Kyoto' cell line stably expressing EB3-EGFP (a kind gift from Dr J. Ellenberg) was maintained in DMEM+GlutaMAX (Gibco) supplemented with 10% FBS, 2 mM L-glutamine, 100 U ml^−1 penicillin, 100 μg ml^−1 streptomycin, 1 mM sodium pyruvate and 0.5 mg ml^−1 G418. Cells were seeded into eight-well Lab-Tek chambers (Nunc, Rochester, NY) for 24-h prior imaging. For imaging, the medium was exchanged to Live Cell Imaging Solution (Molecular Probes Life Technologies) supplemented as described above and containing various concentrations of AG1 or gatastatin. Interphase cells were incubated with drugs for 15 min and mitotic cells were treated as described in Fig. 4c. Then, EB3 tracks were observed under a PerkinElmer UltraVIEW ERS Spinning Disk microscope (Software: UltraVIEW ERS Imaging Suite) equipped with a Plan-APOCHROMAT × 100/1.4 Oil DIC objective, a Confocal Scanner Unit (Yokogawa CSU 22), a Hamamatsu EM CCD camera (C9100-50) and a 488-nm Argon laser at 37 °C, and time-lapse sequences were performed for 60 s with a 400-ms interval. Automatic analysis of EB3-EGFP signal tracks was performed with ImageJ (http://imagej.nih.gov/ij/) and Matlab (Mathworks) as described.

Usually Kd stands for the equilibrium constant for the complex coming apart. Broadly, the IC50 is the midpoint of a concentration-inhibition curve. Low values mean greater potency, high ones weaker potency.

T1 sequence (P23258 whole entry): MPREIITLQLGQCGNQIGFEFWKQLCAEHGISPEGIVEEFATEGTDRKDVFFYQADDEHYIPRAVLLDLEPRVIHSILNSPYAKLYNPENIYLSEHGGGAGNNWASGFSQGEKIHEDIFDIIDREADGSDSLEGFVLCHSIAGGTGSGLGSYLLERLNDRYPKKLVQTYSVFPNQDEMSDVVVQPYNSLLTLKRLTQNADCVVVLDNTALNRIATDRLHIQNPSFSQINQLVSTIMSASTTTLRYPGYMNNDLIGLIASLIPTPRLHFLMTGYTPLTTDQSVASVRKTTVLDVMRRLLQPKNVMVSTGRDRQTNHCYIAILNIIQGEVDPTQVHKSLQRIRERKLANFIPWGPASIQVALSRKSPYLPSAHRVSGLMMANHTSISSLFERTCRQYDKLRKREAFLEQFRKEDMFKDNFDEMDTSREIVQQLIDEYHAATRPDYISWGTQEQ

Regarding `COC(=O)Nc1nc2ccc(C(=O)c3cccs3)cc2[nH]1` [Nocodazole], on human γ-tubulin [1], the “Ratio of Kd[α/β-tubulin]/Kd[γ-tubulin]” value was found to be 0.03 and the Kd amounted to 54.9 ± 19 µM. Besides, on α/β-tubulin, the affinity, expressed as Kd, was 1.8 ± 0.6 µM.
Regarding `COc1ccc(/C=c2\[nH]c(=O)/c(=C/c3cccc(C(=O)c4ccccc4)c3)[nH]c2=O)cc1` [KPU-406], the “Ratio of Kd[α/β-tubulin]/Kd[γ-tubulin]” value on human γ-tubulin [1] turned out to be 0.57. Further, the Kd at human γ-tubulin [1] worked out at 46.1 ± 27.6 µM; on α/β-tubulin it was 26.3 ± 2 µM.
`CC(C)(C)c1[nH]cnc1/C=c1\[nH]c(=O)/c(=C/c2ccccc2)[nH]c1=O` [Plinabulin]: the entries for the “Ratio of Kd[α/β-tubulin]/Kd[γ-tubulin]” value at human γ-tubulin [1] and at human γ-tubulin [1] (listed as plinabulin) were 0.01 and < 0.05, respectively. In addition, the figures for the Kd at human γ-tubulin [1] and at α/β-tubulin were 83.3 ± 18.5 µM and 0.5 ± 0.1 µM, respectively.
Consider `Nc1nc2c(ncn2[C@@H]2O[C@H](COP(=O)(O)OP(=O)(O)OP(=O)(O)O)[C@@H](O)[C@H]2O)c(=O)[nH]1` [GTP], for which, on human γ-tubulin [2], the Kd was found to be 0.121 µM.
`COc1cc2occ(-c3cc(OC)c4c(c3OC)OCO4)c(=O)c2cc1OC` [AG1, glaziovianin A, reference compound]: in test [3] (M-phase-arrested Xenopus egg extracts, 15 μM RanQ69L, 20 min at 20 °C), half-maximal inhibition (IC50) was put at 0.44 µM. For the same compound, the “IC50[DMSO-aster]/IC50[RanQ69L-aster]” value in test [3] (ratio of IC50 values) is reported as 3.14. The compound further showed an IC50 in test [4] of 1.37 µM. Besides, the “Effect on interphase MT network” value in the test with HeLa cells is “caused partial depolymerization of interphase MT network”. On human γ-tubulin [1], the “Ratio of Kd[α/β-tubulin]/Kd[γ-tubulin]” value is 0.61 and the Kd is 85.3 ± 22.8 µM. For the same compound, the “GTP binding (control %)” value at human γ-tubulin [5] amounted to 93.7±11.7%. In addition, in test [6] (1 μM), the Track length is on record as 0.73±0.09 μm, the Track lifetime is 3.30 ± 0.57 s, the Velocity was 9.59±1.01 μm min^−1 and the Track numbers was 106±30. In test [6] (3 μM), this compound came in with a Track length of 0.43±0.07 μm, a Track lifetime of 2.20 ± 0.67 s, a Velocity of 7.33±1.23 μm min^−1 and a Track numbers of 110±42. On α/β-tubulin, this compound returned a Kd of 51.9 ± 36.4 µM.
